According to patent US12239627B2, “Method of treating conditions related to the PGI2 receptor” (Arena Pharmaceuticals, Inc., priority 2014, dated 2025):

Assay: Phase 1 multiple ascending dose, dose titration study with healthy subjects (adverse events, tolerated dose)
Assay type: in vivo, human
Conditions: Cohort 3, twice daily
Protocol: This study was a phase 1, randomized, double-blind, placebo-controlled, multiple-dose, dose titration study. A titration interval of 6 days was employed, with each dose being administered for at least 5 days. One goal was to determine the effect of dose titration on adverse effects.
In each of two subject cohorts, Cohort 1 and Cohort 2, subjects were treated at each dose level for duration of 5 days with exception of the last dose level which included 7 days of treatment.
The protocol was amended to provide for an additional cohort, Cohort 3, in order to evaluate a different dose escalation regimen, as disclosed below.
Cohorts 1 and 2: Two groups of 15 subjects were enrolled and randomized to receive placebo (5 subjects per Cohort) or a starting dose of 0.05 mg Compound 1 (10 subjects per Cohort) on Day I. Once daily (q.d.) dosing continued through 5 days. If tolerated, the next dose escalation (placebo or 0.1 mg q.d. Compound 1) occurred on Day 6 and this dose was administered daily through Day 10.
Subsequent dose escalations were to occur in the same manner every 6th day for up to 3 additional dose escalations if tolerated (placebo or 0.2, 0.3, and 0.4 mg Compound 1) with the final dose maintained for a duration of 7 days. The dose could be decreased (“de-escalated”) or increased (“re-escalated”) based on assessment of safety and tolerability.
Cohort 3: One group of 25 subjects (S placebo and 20 active) were enrolled and randomized to receive a starting dose of 0.01 mg Compound 1 twice daily or placebo on Day 1. Twice daily dosing continued through 5 days. If tolerated, the next dose escalation (placebo or Compound 1 0.02 mg twice daily) occurred on Day 6 and this dose was administered daily through Day 10. Subsequent dose escalations were to occur in the same manner every 6th day for up to 4 additional dose escalations if tolerated (placebo or 0.03, 0.04. 0.05, and 0.07 mg twice daily Compound 1). The dose could be decreased (“de-escalated”) or increased (“re-escalated”) based on assessment of safety and tolerability. The doses tested in this cohort were 0.01, 0.02, 0.03, 0.04, 0.05, and 0.07 mg administered twice daily for a total daily dose of 0.02, 0.04, 0.06, 0.08, 0.1, and 0.14 mg, respectively.
Compound 1 capsules were provided as 0.01 mg (all Cohorts) and 0.1 mg (Cohorts 1 and 2 only) strengths.

O=C(O)COC[C@H]1CC[C@H](COC(=O)N(c2ccccc2)c2ccc(Cl)cc2)CC1 [Compound 1, 2-(((1r,4r)-4-(((4-chlorophenyl)(phenyl)carbamoyloxy)methyl)cyclohexyl)methoxy)acetic acid]
Adverse Events (no. of subjects) leading to Decrease of Dose: Jaw pain (0.03 mg (N = 20)): 0 subjects
Adverse Events (no. of subjects) leading to Decrease of Dose: Myalgia (0.03 mg (N = 20)): 1 subjects
Adverse Events (no. of subjects) leading to Decrease of Dose: Nausea (0.03 mg (N = 20)): 1 subjects
Adverse Events (no. of subjects) leading to Decrease of Dose: Palpitations (0.03 mg (N = 20)): 0 subjects
Adverse Events (no. of subjects) leading to Decrease of Dose: Priapism (0.03 mg (N = 20)): 1 subjects
Adverse Events (no. of subjects) leading to Decrease of Dose: Vomiting (0.03 mg (N = 20)): 0 subjects
Adverse Events (no. of subjects) leading to Decrease of Dose: Abdominal pain (0.04 mg (N = 12)): 0 subjects
Adverse Events (no. of subjects) leading to Decrease of Dose: Arthralgia (0.04 mg (N = 12)): 0 subjects
Adverse Events (no. of subjects) leading to Decrease of Dose: Chest discomfort (0.04 mg (N = 12)): 0 subjects
Adverse Events (no. of subjects) leading to Decrease of Dose: Chest pain (0.04 mg (N = 12)): 0 subjects
Adverse Events (no. of subjects) leading to Decrease of Dose: Diarrhoea (0.04 mg (N = 12)): 0 subjects
Adverse Events (no. of subjects) leading to Decrease of Dose: Dizziness (0.04 mg (N = 12)): 2 subjects
Adverse Events (no. of subjects) leading to Decrease of Dose: Headache (0.04 mg (N = 12)): 1 subjects
Adverse Events (no. of subjects) leading to Decrease of Dose: Jaw pain (0.04 mg (N = 12)): 0 subjects
Adverse Events (no. of subjects) leading to Decrease of Dose: Myalgia (0.04 mg (N = 12)): 0 subjects
Adverse Events (no. of subjects) leading to Decrease of Dose: Nausea (0.04 mg (N = 12)): 0 subjects
Adverse Events (no. of subjects) leading to Decrease of Dose: Palpitations (0.04 mg (N = 12)): 0 subjects
Adverse Events (no. of subjects) leading to Decrease of Dose: Priapism (0.04 mg (N = 12)): 0 subjects
Adverse Events (no. of subjects) leading to Decrease of Dose: Vomiting (0.04 mg (N = 12)): 0 subjects
Adverse Events (no. of subjects) leading to Decrease of Dose: Abdominal pain (0.05 mg (N = 8)): 1 subjects
Adverse Events (no. of subjects) leading to Decrease of Dose: Arthralgia (0.05 mg (N = 8)): 0 subjects
Adverse Events (no. of subjects) leading to Decrease of Dose: Chest discomfort (0.05 mg (N = 8)): 0 subjects
Adverse Events (no. of subjects) leading to Decrease of Dose: Chest pain (0.05 mg (N = 8)): 0 subjects
Adverse Events (no. of subjects) leading to Decrease of Dose: Diarrhoea (0.05 mg (N = 8)): 0 subjects
Adverse Events (no. of subjects) leading to Decrease of Dose: Dizziness (0.05 mg (N = 8)): 1 subjects
Adverse Events (no. of subjects) leading to Decrease of Dose: Headache (0.05 mg (N = 8)): 0 subjects
Adverse Events (no. of subjects) leading to Decrease of Dose: Jaw pain (0.05 mg (N = 8)): 0 subjects
Adverse Events (no. of subjects) leading to Decrease of Dose: Myalgia (0.05 mg (N = 8)): 0 subjects
Adverse Events (no. of subjects) leading to Decrease of Dose: Nausea (0.05 mg (N = 8)): 0 subjects
Adverse Events (no. of subjects) leading to Decrease of Dose: Palpitations (0.05 mg (N = 8)): 0 subjects
Adverse Events (no. of subjects) leading to Decrease of Dose: Priapism (0.05 mg (N = 8)): 0 subjects
Adverse Events (no. of subjects) leading to Decrease of Dose: Vomiting (0.05 mg (N = 8)): 0 subjects
Adverse Events (no. of subjects) leading to Decrease of Dose: Abdominal pain (0.07 mg (N = 4)): 0 subjects
Adverse Events (no. of subjects) leading to Decrease of Dose: Arthralgia (0.07 mg (N = 4)): 1 subjects
Adverse Events (no. of subjects) leading to Decrease of Dose: Chest discomfort (0.07 mg (N = 4)): 0 subjects
Adverse Events (no. of subjects) leading to Decrease of Dose: Chest pain (0.07 mg (N = 4)): 0 subjects
Adverse Events (no. of subjects) leading to Decrease of Dose: Diarrhoea (0.07 mg (N = 4)): 0 subjects
Adverse Events (no. of subjects) leading to Decrease of Dose: Dizziness (0.07 mg (N = 4)): 0 subjects
Adverse Events (no. of subjects) leading to Decrease of Dose: Headache (0.07 mg (N = 4)): 1 subjects
Adverse Events (no. of subjects) leading to Decrease of Dose: Jaw pain (0.07 mg (N = 4)): 1 subjects
Adverse Events (no. of subjects) leading to Decrease of Dose: Myalgia (0.07 mg (N = 4)): 0 subjects
Adverse Events (no. of subjects) leading to Decrease of Dose: Nausea (0.07 mg (N = 4)): 1 subjects
Adverse Events (no. of subjects) leading to Decrease of Dose: Palpitations (0.07 mg (N = 4)): 0 subjects
